Test results as given in PubChem BioAssay AID1963836 (Molecular Pharmacology Branch, DTP, NCI, 2024).
Values joined by “and” are separate entries in the source; they are usually repeats but may differ in a detail not shown here. Equal values may be shown once.

Tested on: 857933-349-R-J2-PDC complex spheroid viability
Test: Anticancer human tumor 857933-349-R-J2-PDC patient-derived colon adenocarcinoma cell line growth inhibition [POLQ]
Conditions: for viability, T/C: stronger effect = lower value; for IC50: curve of compound
Procedure: Multicellular complex tumor spheroid response to Polymerase (POL) inhibitors (novobiocin, ART-558, RP6685) in combination with a variety of drugs and investigational agents in selected tumor cell lines
The POL inhibitors (novobiocin, ART-558, and RP6685) were evaluated both individually and in combination with standard of care and investigational anticancer small molecules within a complex spheroid model of solid tumors. . Complex spheroids include a stromal component modeled by human endothelial cells (HUVEC) and fibroblasts modeled by human mesenchymal stem cells (MSCs). The concentration ranges selected for each drug and investigational agent were based upon clinically achievable concentrations if the clinical Cmax of the agent was known.
Compounds. The drugs and investigational agents: novobiocin (NSC847541), ART-558 (NSC835418), RP-6685 (NSC848927), peposertib (NSC802822), ceralasertib (NSC780249), elimusertib (NSC800525), camonsertib (NSC841442), AZD-1390 (NSC803789), olaparib (NSC753686), talazoparib (NSC767125), rucaparib (NSC756644), sotorasib (NSC818433), MRTX-1133 (NSC836407), SN-38 (NSC673596), topotecan (NSC609699), epotoside (NSC141540), doxorubicin (NSC123127), gemcitabine (NSC613327), 5-fluorouracil (NSC19893), paclitaxel (NSC125973), vemurafenib (NSC761431), MSA-2 (NSC828583), SN-011 (NSC837082), adavosertib (NSC754352), prexasertib (NSC758257), carboplatin (NSC241240) and oxaliplatin (NSC266046), were obtained from the National Cancer Institute (NCI) Developmental Therapeutics Program Chemical Repository (21). The FDA-approved anticancer drug set is available from the Developmental Therapeutics Program at https://dtp.cancer.gov/organization/dscb/obtaining/. […] The stock solutions were prepared in dimethyl sulfoxide (DMSO, Sigma-Aldrich, St. Louis, MO, cat. D2650), except for the platinum compounds which were prepared in saline (Quality Biological, Gaithersburg, MD, cat. 114-055-101), at 800-fold the tested concentration and stored at -70 degrees C prior to their use. All drugs and investigational agents were tested over a range starting from a high concentration at or near the clinical Cmax and decreasing in half-log increments. If the clinical Cmax for an agent had not been determined, the highest concentration tested was 10 microM, except for SN-38, which was tested at a high concentration of 1 microM.
Cell Culture. All cells were maintained in an incubator at 37 degrees C and 5% CO2 with 95% humidity. The PDC lines were cultured according to standard operating procedures established by the NCI PDMR (https://pdmr.cancer.gov). Table 3 of the manuscript, lists the cell lines along with the number of the three cell types plated to form the mct-spheroids and media for tumor cell growth. After thawing, all PDC lines, except 997537-175-T-J1-PDC and 415267-285-R-J2-PDC, were cultured in Matrigel-coated flasks prepared with a working solution of 1X Ham's F-12 nutrient mix, without supplementation (Thermo Fisher Scientific, cat. 11765054), 100 U/mL penicillin-streptomycin (Thermo Fisher Scientific, cat. 15140122), and 2.5% Matrigel (Corning Inc., Corning, NY, cat. 354248) for the first three passages. The two PDC lines 997537-175-T-J1-PDC and 415267-285-R-J2-PDC were cultured on uncoated flasks. The 857933-349-R-J2-PDC line was cultured in 6C/Colon 1B media containing advanced DMEM/F-12 (Thermo Fisher Scientific, cat. 12634028), 10 mM HEPES (Thermo Fisher Scientific, cat. 15630080), 1X GlutaMAX supplement (Thermo Fisher Scientific, cat. 35050061), 0.1 mg/mL primocin (InvivoGen, San Diego, CA, cat. ant-pm-2), 10% defined fetal bovine serum, heat inactivated (HyClone Laboratories Inc., Logan, UT, cat. SH30070.03HI), 50% L-WRN conditioned media (ATCC, cat. CRL-3276), 1.25 mM N-Acetyl-L-cysteine (Sigma-Aldrich, cat. A9165), 10 mM nicotinamide (Sigma-Aldrich, cat. N0636), 1X B-27 supplement (Thermo Fisher Scientific, cat. 17504044), 1X N-2 supplement (Thermo Fisher Scientific, cat. […]
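Further: spheroids exposed to compounds for seven days before readout.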

C#Cc1c(F)ccc2cc(O)cc(-c3ncc4c(N5CC6CCC(C5)N6)nc(OCC56CCCN5CC(F)C6)nc4c3F)c12 (stereo unspecified)
viability, T/C (compound 0.0316 µM): 85.3% and 89.3% and 102% | viability, T/C (compound 0.1 µM): 101% and 91.6% and 82.3% | viability, T/C (compound 0.316 µM): 95.7% and 95.3% and 81.3% | viability, T/C (compound 1 µM): 87.1% and 81.7% and 96.6% | viability, T/C (compound 3.16 µM): 99.9% and 71.5% and 70.8% | viability, T/C (compound 10 µM): 76.4% and 80.9% and 93.4% | IC50: > 10000 nM

C=CC(=O)N1CCN(c2nc(=O)n(-c3c(C)ccnc3C(C)C)c3nc(-c4c(O)cccc4F)c(F)cc23)C(C)C1 (stereo unspecified)
viability, T/C (compound 0.0316 µM): 82% and 96.3% and 96.5% | viability, T/C (compound 0.1 µM): 103% and 96.2% and 101% | viability, T/C (compound 0.316 µM): 97.5% and 113% and 80.8% | viability, T/C (compound 1 µM): 101% and 99.1% and 91.3% | viability, T/C (compound 3.16 µM): 94.3% and 103% and 92.1% | viability, T/C (compound 10 µM): 117% and 103% and 94.6% | IC50: > 10000 nM

C=CCn1c(=O)c2cnc(Nc3ccc(N4CCN(C)CC4)cc3)nc2n1-c1cccc(C(C)(C)O)n1
viability, T/C (compound 0.00316 µM): 99.5% and 94.6% and 95.5% | viability, T/C (compound 0.01 µM): 72.9% and 104% and 93.5% | viability, T/C (compound 0.0316 µM): 84.6% and 98.7% and 93.5% | viability, T/C (compound 0.1 µM): 94.9% and 107% and 102% | viability, T/C (compound 0.316 µM): 109% and 102% (2×) | viability, T/C (compound 1 µM): 66.4% and 73.5% and 82.9% | IC50: > 1000 nM

CC(=O)O[C@H]1C(=O)[C@@]2(C)[C@H]([C@H](OC(=O)c3ccccc3)[C@]3(O)C[C@H](OC(=O)[C@H](O)[C@@H](NC(=O)c4ccccc4)c4ccccc4)C(C)=C1C3(C)C)[C@]1(OC(C)=O)CO[C@@H]1C[C@@H]2O
viability, T/C (compound 0.00949 µM): 40.3% and 50.5% and 65.1% | viability, T/C (compound 0.03 µM): 15.2% and 21.8% and 27.1% | viability, T/C (compound 0.0949 µM): 9.46% and 11.5% and 16.2% | viability, T/C (compound 0.3 µM): 12.5% and 11.3% and 21.3% | viability, T/C (compound 0.949 µM): 11.2% and 14.4% and 17% | viability, T/C (compound 3 µM): 12.1% and 16.1% and 21.9% | IC50: < 9.49 nM and 9.59 nM and 15 nM

CC(C)n1c(=O)n(C)c2cnc3cc(F)c(-c4ccc(OCCCN5CCCCC5)nc4)cc3c21
viability, T/C (compound 0.0316 µM): 85.8% and 92.4% and 99% | viability, T/C (compound 0.1 µM): 84.1% and 96.4% and 101% | viability, T/C (compound 0.316 µM): 92.8% and 101% and 115% | viability, T/C (compound 1 µM): 91.6% and 100% and 106% | viability, T/C (compound 3.16 µM): 94.7% and 113% and 97.5% | viability, T/C (compound 10 µM): 63.6% and 98.3% and 110% | IC50: > 10000 nM

CC1COCCN1c1cc(-c2ccnn2C)c2ccnc(-c3ccn[nH]3)c2n1 (stereo unspecified)
viability, T/C (compound 0.0316 µM): 70% and 80.3% and 83.9% | viability, T/C (compound 0.1 µM): 59.9% and 64.2% and 58.6% | viability, T/C (compound 0.316 µM): 40.7% and 40% and 54.9% | viability, T/C (compound 1 µM): 41.7% and 35.7% and 48.2% | viability, T/C (compound 3.16 µM): 41.2% and 43.7% and 44.5% | viability, T/C (compound 10 µM): 44.9% and 44.1% and 48% | IC50: 190 nM and 202 nM and 558 nM

CC1COCCN1c1cc(C2(O)CC3CCC(C2)O3)c2cnn(-c3ccn[nH]3)c2n1 (stereo unspecified)
viability, T/C (compound 0.0316 µM): 62.7% and 58.8% and 79.7% | viability, T/C (compound 0.1 µM): 51.6% and 50.3% and 63.5% | viability, T/C (compound 0.316 µM): 52.9% and 47% and 57.7% | viability, T/C (compound 1 µM): 44.2% and 42.2% and 45.6% | viability, T/C (compound 3.16 µM): 39.6% and 45.2% and 46.2% | viability, T/C (compound 10 µM): 45.9% and 49.6% and 45.8% | IC50: 232 nM and 94.2 nM and 805 nM

CC1COCCN1c1cc(C2(S(C)(=N)=O)CC2)nc(-c2ccnc3[nH]ccc23)n1 (stereo unspecified)
viability, T/C (compound 0.0316 µM): 87.6% and 102% and 103% | viability, T/C (compound 0.1 µM): 88.4% and 105% and 117% | viability, T/C (compound 0.316 µM): 101% (2×) and 81.7% | viability, T/C (compound 1 µM): 77.9% and 69% and 76.1% | viability, T/C (compound 3.16 µM): 59.6% and 68.9% and 62.7% | viability, T/C (compound 10 µM): 33.2% and 55.2% and 42.2% | IC50: 4650 nM and > 10000 nM and 6260 nM

CCCS(=O)(=O)Nc1ccc(F)c(C(=O)c2c[nH]c3ncc(-c4ccc(Cl)cc4)cc23)c1F
viability, T/C (compound 0.0316 µM): 87.2% and 97.5% and 76% | viability, T/C (compound 0.1 µM): 91% and 92.8% and 98.1% | viability, T/C (compound 0.316 µM): 80.8% and 102% and 99.7% | viability, T/C (compound 1 µM): 82.6% and 101% and 102% | viability, T/C (compound 3.16 µM): 97.3% and 93.2% and 86% | viability, T/C (compound 10 µM): 32.9% and 13.3% and 13.9% | IC50: 6990 nM and 5900 nM and 5640 nM

CC[C@@]1(O)C(=O)OCc2c1cc1n(c2=O)Cc2cc3c(CN(C)C)c(O)ccc3nc2-1
viability, T/C (compound 0.000316 µM): 98.5% and 99.4% and 113% | viability, T/C (compound 0.001 µM): 115% and 95.2% and 99.9% | viability, T/C (compound 0.00316 µM): 79.1% and 91.7% and 88.3% | viability, T/C (compound 0.01 µM): 71.2% and 80% and 87.5% | viability, T/C (compound 0.0316 µM): 66.7% and 63.9% and 53.9% | viability, T/C (compound 0.1 µM): 44.2% and 46.5% and 45.7% | IC50: 76.4 nM and 80.2 nM and 66.3 nM

CCc1c2c(nc3ccc(O)cc13)-c1cc3c(c(=O)n1C2)COC(=O)[C@]3(O)CC
viability, T/C (compound 0.00316 µM): 76.9% and 53.6% and 65.9% | viability, T/C (compound 0.01 µM): 60.1% and 67.4% and 65.8% | viability, T/C (compound 0.0316 µM): 35.1% and 21.3% and 31.4% | viability, T/C (compound 0.1 µM): 22.3% and 16.2% and 23.3% | viability, T/C (compound 0.316 µM): 17.8% and 10.6% and 15.8% | viability, T/C (compound 1 µM): 4.53% and 2.45% and 5.61% | IC50: 15.6 nM and 13.6 nM and 16.5 nM

CCc1cc2c(N3CCc4c(cc(Cn5ccnc5)cc4-c4cn(C)nc4C(F)(F)F)C3=O)cc(C)nc2c(OC)n1
viability, T/C (compound 0.0316 µM): 87% and 98.2% and 83.5% | viability, T/C (compound 0.1 µM): 84.3% and 88% and 82% | viability, T/C (compound 0.316 µM): 97.7% and 105% and 92.7% | viability, T/C (compound 1 µM): 61.2% and 84.8% and 84% | viability, T/C (compound 3.16 µM): 65% and 78.1% and 61.3% | viability, T/C (compound 10 µM): 54.8% and 53.6% and 58.1% | IC50: > 10000 nM

CCc1cc2c(N3CCc4c(cc(Cn5ccnc5)cc4-c4cn(C)nc4C(F)(F)F)C3=O)ccnc2c(OC)n1
viability, T/C (compound 0.0316 µM): 78.8% and 89.8% and 94.1% | viability, T/C (compound 0.1 µM): 83.8% and 87.8% and 80.9% | viability, T/C (compound 0.316 µM): 73.6% and 90% and 98.3% | viability, T/C (compound 1 µM): 73.4% and 84.9% and 82.2% | viability, T/C (compound 3.16 µM): 62.2% and 72.7% and 78% | viability, T/C (compound 10 µM): 58.9% and 65.9% and 59% | IC50: > 10000 nM
